From patent US9790229B2, “Bruton's tyrosine kinase inhibitors” (priority 2009, dated 2017)
Read-outs that look alike come from different tables or passages of the source.

Biological target: BTK (Homo sapiens (Human), UniProt Q06187)
Assay: In vitro BTK kinase assay: BTK-POLYGAT-LS ASSAY
[1] = read-out: IC50 (10 uM ATP), 10 uM ATP, in vitro Btk kinase assay, Example 41

BTK, sequence (Q06187 whole entry): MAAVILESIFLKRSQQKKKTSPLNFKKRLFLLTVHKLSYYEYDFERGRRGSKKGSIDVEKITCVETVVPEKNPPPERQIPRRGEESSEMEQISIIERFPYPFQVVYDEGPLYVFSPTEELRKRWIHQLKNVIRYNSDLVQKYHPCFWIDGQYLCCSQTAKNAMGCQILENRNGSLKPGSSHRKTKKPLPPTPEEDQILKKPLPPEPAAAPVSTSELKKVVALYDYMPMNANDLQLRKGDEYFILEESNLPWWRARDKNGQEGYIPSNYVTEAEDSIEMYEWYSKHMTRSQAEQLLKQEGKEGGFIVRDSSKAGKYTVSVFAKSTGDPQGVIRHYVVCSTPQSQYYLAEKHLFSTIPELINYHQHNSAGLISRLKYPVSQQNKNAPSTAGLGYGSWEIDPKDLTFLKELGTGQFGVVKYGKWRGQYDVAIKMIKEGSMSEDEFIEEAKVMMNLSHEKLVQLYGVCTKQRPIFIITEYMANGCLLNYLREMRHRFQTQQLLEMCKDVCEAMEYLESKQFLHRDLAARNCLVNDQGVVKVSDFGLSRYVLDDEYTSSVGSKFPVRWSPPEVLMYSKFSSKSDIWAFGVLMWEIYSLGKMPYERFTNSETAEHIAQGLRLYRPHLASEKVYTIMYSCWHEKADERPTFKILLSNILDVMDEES

Compound | IC50 | IC50 [1]
O=C(NCC1CCCC1)Nc1cccc(C2CCCN(c3ncnc4[nH]ccc34)C2)c1 (stereo not drawn) [compound 166] | 100 to 999 nM | –
N[C@H]1CCN(c2ccccc2NC(=O)Nc2cccc(C3CCCN(c4ncnc5[nH]ccc45)C3)c2)C1 (stereo partly drawn) [compound 169] | 100 to 999 nM | –
Nc1ncnc(N2CC[C@@H](F)[C@@H](N3CCC[C@@H](Nc4cc(F)cc(Cl)c4)C3=O)C2)c1F [compound 341, (3R,3′S,4′R)-1′-(6-amino-5-fluoropyrimidin-4-yl)-3-(3-chloro-5-fluorophenylamino)-4′-fluoro-1,3′-bipiperidin-2-one] | – | < 100 nM
O=C(Nc1cccc(C2CCN(c3ncnc4[nH]ccc34)C2)c1)Nc1ccccc1N1CCCC1 (stereo not drawn) [compound 171] | 100 to 999 nM | –
Nc1ncnc(N2CCC[C@@H](N3CCCC(Nc4cc(F)cc(Cl)c4)C3=O)C2)c1Cl (stereo partly drawn) [compound 289, (3′R)-1′-(6-Amino-5-chloropyrimidin-4-yl)-3-(3-chloro-5-fluorophenylamino)-1,3′-bipiperidin-2-one] | 100 to 999 nM | –
O=S(=O)(Nc1cccc(C2CCCN(c3ncnc4[nH]ccc34)C2)c1)c1ccccc1 (stereo not drawn) [Cmpd 68, N-(3-(1-(7H-pyrrolo[2,3-d]pyrimidin-4-yl)piperidin-3-yl)phenyl)benzenesulfonamide] | – | > 10000 nM
CC(C)(C)Nc1c(Nc2cccc(C3CCCN(c4ncnc5[nH]ccc45)C3)c2)c(=O)c1=O (stereo not drawn) [Cmpd 73, 3-(3-(1-(7H-pyrrolo[2,3-d]pyrimidin-4-yl)piperidin-3-yl)phenylamino)-4-(tert-butylamino)cyclobut-3-ene-1,2-dione] | – | > 10000 nM
CC(C)CN1CCN(c2ncnc3[nH]ccc23)CC1c1cccc(NC(=O)Nc2ccccc2)c1 (stereo not drawn) [compound 129, 1-(3-(1-isobutyl-4-(7H-pyrrolo[2,3-d]pyrimidin-4-yl)piperazin-2-yl)phenyl)-3-phenylurea] | 1000 to 10000 nM | –
O=C(Nc1cccc(C2CCCN(c3ncnc4[nH]ccc34)C2)c1)Nc1ccccc1-n1ccnc1 (stereo not drawn) [Cmpd 35, 1-(2-(1H-imidazol-1-yl)phenyl)-3-(3-(1-(7H-pyrrolo[2,3-d]pyrimidin-4-yl)piperidin-3-yl)phenyl)urea] | 1000 to 10000 nM | –
Nc1ncnc(N2CCC[C@@H](N3CCCC(Nc4cc(F)cc(Cl)c4)C3=O)C2)c1F (stereo in doubt) [compound 313, (3R,3′R)-1′-(6-Amino-5-fluoropyrimidin-4-yl)-3-(3-chloro-5-fluorophenylamino)-1,3′-bipiperidin-2-one] | – | < 100 nM
O=C(Nc1cccc(C2CCCN(c3ncnc4[nH]ccc34)C2)c1)N[C@@H](CO)C1CCCCC1 (stereo partly drawn) [compound 213] | 1000 to 10000 nM | –
O=C(NCc1ccccc1)Nc1cccc(C2CCCN(c3ncnc4[nH]ccc34)C2)c1 (stereo not drawn) [compound 219] | 1000 to 10000 nM | –
N#Cc1c(N)ncnc1N1CCCC(c2ccc(OC(F)(F)F)c(NC(=O)c3ccccc3Cl)c2)C1 (stereo not drawn) [compound 145] | 100 to 999 nM | –
O=C1C(NC2CCCC2)CCCN1[C@@H]1CCCN(c2ncnc3[nH]ccc23)C1 (stereo partly drawn) [compound 303, (3′R)-3-(Cyclopentylamino)-1′-(7H-pyrrolo[2,3-d]pyrimidin-4-yl)-1,3′-bipiperidin-2-one] | – | > 10000 nM
O=C(Nc1cccc(C2CCCN(c3ncnc4[nH]ccc34)C2)c1)Nc1ccccc1N1C[C@H](O)[C@@H](O)C1 (stereo partly drawn) [compound 150] | – | < 100 nM
COc1cccc(NC(=O)Nc2cccc(C3CCCN(c4ncnc5[nH]ccc45)C3)c2)c1 (stereo not drawn) [compound 187] | 1000 to 10000 nM | –
O=C1C(Nc2ccccc2)c2ccccc2N1[C@@H]1CCCN(c2ncnc3[nH]ccc23)C1 (stereo partly drawn) [compound 274] | 1000 to 10000 nM | –
O=C(NCC1CCNC1)Nc1cccc(C2CCCN(c3ncnc4[nH]ccc34)C2)c1 (stereo not drawn) [compound 233] | – | > 10000 nM
Nc1ncnc(N2CC[C@H](F)[C@H](N3CCC[C@H](Nc4cc(F)cc(Cl)c4)C3=O)C2)c1F [compound 343, (3S,3′R,4′S)-1′-(6-amino-5-fluoropyrimidin-4-yl)-3-(3-chloro-5-fluorophenylamino)-4′-fluoro-1,3′-bipiperidin-2-one] | – | > 10000 nM
O=C1C(Nc2ccccc2)CCN1[C@@H]1CCCN(c2ncnc3[nH]ccc23)C1 (stereo partly drawn) [compound 270, 1-((R)-1-(7H-pyrrolo[2,3-d]pyrimidin-4-yl)piperidin-3-yl)-3-(phenylamino)pyrrolidin-2-one] | 100 to 999 nM | –
O=C1C(NC2CCCCC2)CCCN1[C@@H]1CCCN(c2ncnc3[nH]ccc23)C1 (stereo partly drawn) [compound 304, (3′R)-3-(Cyclohexylamino)-1′-(7H-pyrrolo[2,3-d]pyrimidin-4-yl)-1,3′-bipiperidin-2-one] | – | > 10000 nM
c1ccc(Nc2cccc(C3CCCN(c4ncnc5[nH]ccc45)C3)c2)nc1 (stereo not drawn) [compound 140, N-(3-(1-(7H-pyrrolo[2,3-d]pyrimidin-4-yl)piperidin-3-yl)phenyl)pyridin-2-amine] | 1000 to 10000 nM | –
O=C1[C@H](Nc2ccccc2)CCN1[C@@H]1CCCN(c2ncnc3[nH]ccc23)C1 [compound 273] | 100 to 999 nM | –
O=C(Nc1cccc(C2CCCN(c3ncnc4[nH]ccc34)C2)c1)Nc1ccccc1N1CC[C@H](O)C1 (stereo partly drawn) [compound 155] | – | < 100 nM

Compound | IC50 | IC50 [1]
O=C(Nc1ccccc1)Nc1cccc(C2CCN(c3ncnc4[nH]ccc34)C2)c1 (stereo not drawn) [Cmpd 28, 1-(3-(1-(7H-pyrrolo[2,3-d]pyrimidin-4-yl)pyrrolidin-3-yl)phenyl)-3-phenylurea] | 1000 to 10000 nM | –
O=C(Nc1cccc(C2CCCN(c3ncnc4[nH]ccc34)C2)c1)Nc1c(F)cccc1N1CCCC1 (stereo not drawn) [compound 146] | – | < 100 nM
CNc1c(Nc2cccc(C3CCCN(c4ncnc5[nH]ccc45)C3)c2)c(=O)c1=O (stereo not drawn) [Cmpd 72, 3-(3-(1-(7H-pyrrolo[2,3-d]pyrimidin-4-yl)piperidin-3-yl)phenylamino)-4-(methylamino)cyclobut-3-ene-1,2-dione] | – | > 10000 nM
O=C(Nc1ccccc1)NC1CN(C2CCCN(c3ncnc4[nH]ccc34)C2)C1 (stereo not drawn) [compound 234] | – | > 10000 nM
O=c1c(Nc2ccccc2)c(Nc2cccc(C3CCCN(c4ncnc5[nH]ccc45)C3)c2)c1=O (stereo not drawn) [Cmpd 69, 3-(3-(1-(7H-pyrrolo[2,3-d]pyrimidin-4-yl)piperidin-3-yl)phenylamino)-4-(phenylamino)cyclobut-3-ene-1,2-dione] | – | > 10000 nM
Cc1c(N)ncnc1N1CCCC(c2cccc(NC(=O)Nc3ccccc3)c2)C1 (stereo not drawn) [Cmpd 98, 1-(3-(1-(6-Amino-5-methylpyrimidin-4-yl)piperidin-3-yl)phenyl)-3-phenylurea] | 1000 to 10000 nM | –
O=C(Nc1cccc(C2CCCN(c3ncnc4[nH]ccc34)C2)c1)c1c(Cl)cccc1Cl (stereo not drawn) [Cmpd 10, N-(3-(1-(7H-pyrrolo[2,3-d]pyrimidin-4-yl)piperidin-3-yl)phenyl)-2,6-dichlorobenzamide] | – | > 10000 nM
O=C(Nc1ccccc1)Nc1nc(C2CCCN(c3ncnc4[nH]ccc34)C2)cs1 (stereo not drawn) [compound 116, 1-(4-(1-(7H-pyrrolo[2,3-d]pyrimidin-4-yl)piperidin-3-yl)thiazol-2-yl)-3-phenylurea] | 1000 to 10000 nM | –
Nc1cc(N2CCCC(c3cccc(NC(=O)Nc4ccccc4)c3)C2)ncn1 (stereo not drawn) [Cmpd 94, 1-(3-(1-(6-aminopyrimidin-4-yl)piperidin-3-yl)phenyl)-3-phenylurea] | 1000 to 10000 nM | –
O=C(COc1ccccc1)Nc1cccc(C2CCCN(c3ncnc4[nH]ccc34)C2)c1 (stereo not drawn) [Cmpd 22, N-(3-(1-(7H-pyrrolo[2,3-d]pyrimidin-4-yl)piperidin-3-yl)phenyl)-2-phenoxyacetamide] | 1000 to 10000 nM | –
CC(=O)N1CCC(CNC(=O)Nc2cccc(C3CCCN(c4ncnc5[nH]ccc45)C3)c2)CC1 (stereo not drawn) [compound 246] | – | > 10000 nM
CS(=O)(=O)c1ccccc1NC(=O)Nc1cccc(C2CCCN(c3ncnc4[nH]ccc34)C2)c1 (stereo not drawn) [Cmpd 64, 1-(3-(1-(7H-pyrrolo[2,3-d]pyrimidin-4-yl)piperidin-3-yl)phenyl)-3-(2-(methylsulfonyl)phenyl)urea] | 1000 to 10000 nM | –
N#CNc1cc(N2CCC[C@@H](N3CCCC(Nc4cc(F)cc(Cl)c4)C3=O)C2)ncn1 (stereo partly drawn) [compound 358] | 100 to 999 nM | –
CC(C)(C)c1cccc(NC(=O)Nc2cccc(C3CCCN(c4ncnc5[nH]ccc45)C3)c2)c1 (stereo not drawn) [compound 264] | – | > 10000 nM
N#Cc1c(N)ncnc1N1CCCC(c2nc(NC(=O)Nc3c(F)cc(F)cc3N3CCCC3)cs2)C1 (stereo not drawn) [compound 113, 1-(2-(1-(6-amino-5-cyanopyrimidin-4-yl)piperidin-3-yl)thiazol-4-yl)-3-(2,4-difluoro-6-(pyrrolidin-1-yl)phenyl)urea] | – | < 100 nM
Nc1ncnc(N2CCCC(c3cccc(NC(=O)Nc4ccccc4)c3)C2)c1CCC(=O)O (stereo not drawn) [compound 206] | 1000 to 10000 nM | –
CN(C)Cc1ccccc1NC(=O)Nc1cccc(C2CCCN(c3ncnc4[nH]ccc34)C2)c1 (stereo not drawn) [Cmpd 63, 1-(3-(1-(7H-pyrrolo[2,3-d]pyrimidin-4-yl)piperidin-3-yl)phenyl)-3-(2-((dimethylamino)methyl)phenyl)urea] | 1000 to 10000 nM | –
CNc1ncnc(N2CCC[C@@H](N3CCCC(Nc4cc(F)cc(Cl)c4)C3=O)C2)c1F (stereo partly drawn) [compound 286, (3′R)-3-(3-Chloro-5-fluorophenylamino)-1′-(5-fluoro-6-(methylamino)pyrimidin-4-yl)-1,3′-bipiperidin-2-one] | 1000 to 10000 nM | –
O=C(Nc1cccc(C2CCCN(c3ncnc4[nH]ccc34)C2)c1)Nc1ccccc1N1C[C@@H](O)[C@H](O)C1 (stereo partly drawn) [compound 158] | 100 to 999 nM | –
Cc1cc(NC(=O)Nc2cccc(C3CCCN(c4ncnc5[nH]ccc45)C3)c2)c(C(F)(F)F)o1 (stereo not drawn) [compound 236] | – | > 10000 nM
C[C@@H](NC(=O)Nc1cccc(C2CCCN(c3ncnc4[nH]ccc34)C2)c1)C1CCCCC1 (stereo partly drawn) [Cmpd 44, 1-(3-(1-(7H-pyrrolo[2,3-d]pyrimidin-4-yl)piperidin-3-yl)phenyl)-3-((R)-1-cyclohexylethyl)urea] | 1000 to 10000 nM | –
O=C(Nc1cccc(C2CCCN(c3ncnc4[nH]ccc34)C2)c1)c1ccccc1 (stereo not drawn) [Cmpd 2, N-(3-(1-(7H-pyrrolo[2,3-d]pyrimidin-4-yl)piperidin-3-yl)phenyl)benzamide] | 1000 to 10000 nM | –
CN1CCN(c2ccccc2NC(=O)Nc2cccc(C3CCCN(c4ncnc5[nH]ccc45)C3)c2)CC1 (stereo not drawn) [compound 209] | 1000 to 10000 nM | –
CC(C)c1cc(=O)nc(Nc2cccc(C3CCCN(c4ncnc5[nH]ccc45)C3)c2)[nH]1 (stereo not drawn) [compound 121, 2-(3-(1-(7H-pyrrolo[2,3-d]pyrimidin-4-yl)piperidin-3-yl)phenylamino)-6-isopropylpyrimidin-4(1H)-one] | 1000 to 10000 nM | –
